In patent publication US20160304556A1, “[…] ACTIVE COMPOUNDS AND THEIR METHODS OF USE” (AGIOS PHARMACEUTICALS, INC, priority 2012, published 2016):

Columns and labels:
HT1080 cells = assay: Cellular assay, inhibition of 2-HG production (LC-MS) in HT1080 cells; assay type: cell-based; conditions: Homo sapiens, HT-1080, 48 hours, LC-MS of media
Outline: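 HT1080 cells (5000/well) were incubated 48 hours with compound, 0.2% DMSO final. Medium 2-HG was quantified by LC-MS, and IC50 was taken as the concentration giving 50% reduction versus DMSO control. Viability was read by CellTiter-Glo luminescence at 72 hours.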

IDH1 R132C = IDH1 R132C (Homo sapiens, UniProt O75874, R132C); assay: In vitro NADPH depletion assay for IDH1m R132C inhibitors; assay type: biochemical; conditions: enzyme, diaphorase/resazurin readout, read-out: IDH R132C IC50
Experimental: A test compound is prepared as 10 mM stock in DMSO and diluted to 50× final concentration in DMSO, for a 50 μl reaction mixture. IDH enzyme activity converting alpha-ketoglutarate to 2-hydroxyglutaric acid is measured using a NADPH depletion assay. In the assay the remaining cofactor is measured at the end of the reaction with the addition of a catalytic excess of diaphorase and resazurin, to generate a fluorescent signal in proportion to the amount of NADPH remaining. IDH1-R132 homodimer enzyme is diluted to […] in 40 μl of Assay Buffer(150 mM NaCl, 20 mM Tris-Cl pH 7.5, 10 mM MgCl2, 0.05% BSA, 2 mM b-mercaptoethanol); 1 μl of test compound dilution in DMSO is added and the mixture is incubated for 60 minutes at room temperature. The reaction is started with the addition of 10 μl of Substrate Mix ([…], 5 mM alpha-ketoglutarate, in Assay Buffer) and the mixture is incubated for 90 minutes at room temperature. The reaction is terminated with the addition of 25 μl of Detection Buffer (36 μg/ml diaphorase, […], in 1× Assay Buffer), and is incubated for 1 minute before reading on a SpectraMax platereader at Ex544/Em590.
Compounds are assayed for their activity against IDH1 R132C following the same assay as above with the following modifications: Assay Buffer is (50 mM potassium phosphate, pH 6.5; 40 mM sodium carbonate, 5 mM MgCl2, 10% glycerol, 2 mM b-mercaptoethanol, and 0.03% BSA). The concentration of NADPH and alpha-ketoglutarate in the Substrate Buffer is 20 μM and 1 mM, respectively.
Representative compounds of formula I set forth in Table 1 were tested in this assay and the results are set forth below in Table 3.

IDH1 R132H = IDH1 R132H (Homo sapiens, UniProt O75874, R132H); assay: In vitro NADPH depletion assay for IDH1m R132H inhibitors; assay type: biochemical; conditions: enzyme, diaphorase/resazurin readout, read-out: IDH R132H IC50
Outline: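 IDH1-R132H homodimer […] was preincubated with compound for 60 min at room temperature in 20 mM Tris-Cl pH 7.5, 150 mM NaCl, 10 mM MgCl2, 0.05% BSA, 2 mM b-mercaptoethanol. Substrate mix (NADPH, 5 mM alpha-ketoglutarate) then reacted for 90 min. Remaining NADPH was read by diaphorase/resazurin fluorescence at Ex544/Em590.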

Sequence of IDH1 R132H (O75874 whole entry R132H): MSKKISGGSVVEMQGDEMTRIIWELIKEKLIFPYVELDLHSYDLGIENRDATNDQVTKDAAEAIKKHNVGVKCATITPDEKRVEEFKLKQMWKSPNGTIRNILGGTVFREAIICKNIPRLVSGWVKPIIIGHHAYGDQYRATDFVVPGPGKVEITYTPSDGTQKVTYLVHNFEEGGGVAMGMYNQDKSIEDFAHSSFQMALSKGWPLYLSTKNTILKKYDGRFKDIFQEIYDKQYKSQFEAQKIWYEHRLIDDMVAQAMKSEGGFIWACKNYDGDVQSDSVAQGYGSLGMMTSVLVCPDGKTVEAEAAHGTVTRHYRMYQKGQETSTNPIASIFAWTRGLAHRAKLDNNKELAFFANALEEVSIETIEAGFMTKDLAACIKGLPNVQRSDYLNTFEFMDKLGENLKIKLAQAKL
Sequence of IDH1 R132C (O75874 whole entry R132C): as the sequence (O75874 whole entry R132H) above, with H132C counted along it

Compound	IC50 (HT1080 cells) [nM]	IC50 (IDH1 R132C) [nM]	IC50 (IDH1 R132H) [nM]
C=CC(=O)Nc1cccc(N(C(=O)Cc2cccnc2)C(C(=O)NC2CC(F)(F)C2)c2ccccc2Cl)c1 (stereo not drawn) [Compound 88, N-(3-(N-(1-(2-chlorophenyl)-2-(3,3-difluorocyclobutylamino)-2-oxoethyl)-2-(pyridin-3-yl)acetamido)phenyl)acrylamide]	1000 to 2000	100 to 500	500 to 1000
CC(C)OC(=O)NCC(=O)N(c1cccc(F)c1)C(C(=O)NC1CC(F)(F)C1)c1ccccc1Cl (stereo not drawn) [Compound 74]	1000 to 2000	100 to 500	100 to 500
COC(=O)N1CCN(C(C)=O)C[C@H]1C(=O)N(c1cccc(F)c1)[C@H](C(=O)NC1CC(F)(F)C1)c1ccccc1Cl [Compound 68, (S)-Methyl 4-acetyl-2-(((S)-1-(2-chlorophenyl)-2-(3,3-difluorocyclobutylamino)-2-oxoethyl) (3-fluorophenyl)carbamoyl)piperazine-1-carboxylate]	100 to 500	≤ 100	≤ 100
O=C(NC1CC(F)(F)C1)[C@H](c1ccccc1Cl)N(C(=O)[C@@H]1C[C@@H](O)CN1c1ncccn1)c1cccc(F)c1 [Compound 100, (2S,4R)—N—((S)-1-(2-chlorophenyl)-2-(3,3-difluorocyclobutyl-amino)-2-oxoethyl)-N-(3-fluorophenyl)-4-hydroxy-1-(pyrimidin-2-yl)pyrrolidine-2-carbox-amide]	100 to 500	≤ 100	≤ 100
COC(=O)NCC(=O)N(c1cccc(F)c1)C(C(=O)NC1CCC(F)(F)CC1)c1ccccc1Cl (stereo not drawn) [Compound 92]	100 to 500	≤ 100	≤ 100

Results, then the compound that gave them:

IC50 (HT1080 cells) [nM]	IC50 (IDH1 R132C) [nM]	IC50 (IDH1 R132H) [nM]	Compound
100 to 500	≤ 100	≤ 100	C[C@H]1CC[C@@H](C(=O)N(c2cccc(F)c2)[C@@H](C(=O)NC2CCC(F)(F)CC2)c2ccccc2Cl)N1c1ncccn1 [Compound 110, (2S,5S)—N—((R)-1-(2-chlorophenyl)-2-(4,4-difluorocyclohexylamino)-2-oxoethyl)-N-(3-fluorophenyl)-5-methyl-1-(pyrimidin-2-yl)pyrrolidine-2-carboxamide]
100 to 500	≤ 100	100 to 500	COC(=O)N1[C@@H](C(=O)N(c2cccc(F)c2)[C@H](C(=O)NC2CC(F)(F)C2)c2ccccc2Cl)CCC1(C)C (single isomer, unassigned) [Compound 114]
100 to 500	≤ 100	100 to 500	O=C(NC1CC(F)(F)C1)[C@@H](c1ccccc1Cl)N(C(=O)[C@H](CO)Nc1ncccn1)c1cccc(F)c1 [Compound 108]
100 to 500	100 to 500	≤ 100	COC(=O)N1CC[C@H]1C(=O)N(c1cccc(F)c1)[C@H](C(=O)NC1CC(F)(F)C1)c1ccccc1Cl [Compound 106]
